# Test results as given in patent publication US10376518B2, “Methods for the treatment of autoimmune diseases” (UCL Business PLC, priority 2013, dated 2019).
# Key:
# [1] = tested on: FOXP3 expression by CD8+ T cells; assay: CD8+FOXP3+ Treg induction in PBMC cultures, flow cytometry; format: cell-based, human; settings: for FOXP3 expression by CD8+ T cells: 24 h
# From the text: Isolation of cell populations. PBMC were isolated by Ficoll-Paque Plus (GE Healthcare) gradient centrifugation, resuspended to 10^7 cells/ml in FCS (Biosera) and 5% DMSO (Sigma-Aldrich), and frozen until subsequent use. CD8^+ T cells were negatively isolated and monocytes, CD4^+ T cells or B cells were depleted from PBMCs by positive selection with magnetic beads (Miltenyi, Biotec). Monocyte subsets or CD8^+ T cells interacting with monocytes were FACS sorted with the FACSAria (Beckton, Dickinson) based on expression of HLA-DR and CD14 or CD8 respectively.
# (§1) Cell Cultures. For CD8^+FoxP3^+ Treg induction, PBMC were cultured with anti-CD3 mAb (OKT3 (e-bioscience), HIT3A (e-bioscience), UCHT1 (e-bioscience), Otelixizumab (GSK)) or anti-CD3 F(Ab)2 (GSK) in RPMI1640, (Sigma-Aldrich), 10% fetal calf serum (Biosera) or human serum type AB (Lonza), 100 U/mg/ml penicillin/streptomycin (Sigma-Aldrich) for 24 h or 5 d. Alternatively, 1 μg/ml of agonist antibodies against CD28 (e-bioscience) or TNFRII (Hycult Biotech) in combination with OKT3 were utilized in PBMC cultures depleted of monocytes. For cytokine neutralization cultures, PBMC were cultured with OKT3 alone or in the presence of an isotype control or 10 μg/ml anti-TNF-α (R&D systems) or anti-IL-1β mAbs (R&D systems), 12.5 μg/ml anti-TGF-β mAb (R&D systems) or 0.1 μg/ml anti-IL-6 mAb (R&D systems). To inhibit monocyte activation of CD8^+ T cells, 10 μg/ml anti-CD80 (R&D systems) or anti-CD86 (R&D systems) were utilized. To convert a non-responder CD8^+ T cell into a responder, whole PBMC were incubated with 10 μg/ml TAPI (Enzo Life Sciences) for 1 h at room temperature, or with 5 μM selective p38 MAPK inhibitor, BIRB 796 (Merck Millipore), for 2 hours at 37° C. before culture with OKT3.
# Flow cytometry and soluble cytokine detection. Cell surface staining and intracellular staining were performed using the eBioscience FOXP3 staining buffer set as per manufacturers' instructions. For CD8^+ T cell staining, CD8-FITC and CD4-V450 were used to identify a pure CD8^+ T cell population. CD25-PECy7, TNFRII-APC, CTLA-4-PE, TGFβ-APC were used for characterization. For monocyte and B cells staining, CD14-APC, CD16-PE, HLA-DR-PECy7, CD19-APC were used in combination with membrane TNFα-PE. FOXP3-PE was used to detect intracellular FOXP3. For analysis of human intracellular cytokine production, PBMC were stimulated for 4 h with 50 ng/ml PMA, 250 ng/ml ionomycin (Sigma-Aldrich), and Golgi-Plug (BD, Biosciences) in complete medium. IFN-γ-PECy7, IL-10-APC, IL-2-APC, IL-17-APC, TNF-α-APC and appropriate isotype controls were utilized. For staining of membrane TNF-α versus soluble TNF-α production by monocytes, PBMC were cultured with anti-CD3 mAb alone, or after pre-incubation with TAPI, for 24 h. Supernatants were subsequently removed and replaced with the aforementioned stimulation mix for 4 h. PBMC were then stained for CD14-APC and membrane TNF-α-PE, before intracellular staining for TNF-α-FITC. Data were acquired on an LSRII (Beckton, Dickinson) and analyzed with FlowJo (TreeStar). IL-17 and IFN-γ levels from suppression assay supernatants were measured by mosaic ELISA (R&D Systems) as described by manufacturer's instruction and analyzed by Quansys Q-View™ Software (R&D Systems).
# [2] = tested on: membrane TNF-α expression by monocytes; assay: membrane TNF-α staining of monocytes in PBMC, flow cytometry; format: cell-based, human; settings: PBMC pre-incubated 1 h at room temperature, 10 μg/ml
# Method: as §1, with “To convert a non-responder CD8^+ T cell into a responder, whole PBMC were incubated with 10 μg/ml TAPI (Enzo Life Sciences) for 1 h at room temperature, or with 5 μM selective p38 MAPK inhibitor, BIRB 796 (Merck Millipore), for 2 hours at 37° C. before culture with OKT3.” left out
# Flow cytometry and soluble cytokine detection. […] Data were acquired on an LSRII (Beckton, Dickinson) and analyzed with FlowJo (TreeStar). IL-17 and IFN-γ levels from suppression assay supernatants were measured by mosaic ELISA (R&D Systems) as described by manufacturer's instruction and analyzed by Quansys Q-View™ Software (R&D Systems).
# [3] = fixed monocytes reintroduced to autologous monocyte-depleted PBMC
molecule,measurement,setting,value
F(Ab)2 of Otelixizumab: F(Ab)2 fragment of the anti-CD3 antibody Otelixizumab (GSK),FOXP3 expression by CD8+ T cells,[1]; [3],successfully induced FOXP3 expression
Cc1ccc(-n2nc(C(C)(C)C)cc2NC(=O)Nc2ccc(OCCN3CCOCC3)c3ccccc23)cc1 [BIRB 796],FOXP3 expression by CD8+ T cells that did not initially respond to CD3-specific stimulation,"[1]; RA PBMC pre-incubated 5 μM, 2 h, 37° C., then OKT3 24 h, non-responders",resulted in FOXP3 expression
same,response of CD8+ T cells that could already induce FOXP3 expression,"[1]; RA PBMC pre-incubated 5 μM, 2 h, 37° C., then OKT3 24 h, responders",did not alter the response
TAPI,maximal induction of CD8+FOXP3+ Treg from prior non-responders,"[1]; RA PBMC pre-incubated with TAPI, then anti-CD3 mAb 24 h",approximately 50%
same,induction of CD8+FOXP3+ Treg in healthy individuals,"[1]; healthy PBMC pre-incubated with TAPI, then OKT3 24 h",this effect was not observed in healthy individuals
same,expression of membrane TNF-α by monocytes,[2],increased expression of membrane TNF-α by monocytes
OKT3: anti-CD3 mAb clone (e-bioscience),FOXP3 expression by CD8+ T cells,[1]; [3],successfully induced FOXP3 expression
same,FOXP3 expression by CD8+ T cells,"[1]; whole RA PBMC, 1 μg/ml",successfully increased levels of FOXP3 expression
